In data set [1] the test system is HCV replicon in human hepatoma Huh-7 cell line. Kind of data set: Anti-HCV replicon assay, EC50 (luciferase luminescence). In kind it is cell-based. To be noted: Hepatitis C virus, Huh-7, 72 h. As to the method:
(§1) The anti-HCV activity of the pyrido[3,2-d]pyrimidine derivatives of this invention was tested in a human hepatoma Huh-7 cell line harboring a HCV replicon. The assay comprised the following steps: • Step 1: compound preparation and serial dilution: serial dilution is performed in 50% DMSO in a 384-well plate. A solution containing a compound at 100-fold concentration of the starting final serial dilution concentration was prepared in 50% DMSO and added to the pre-specified wells in column 1 of a polypropylene 384-well plate. The plate was then placed on a Precision 2000 Workstation to start the serial dilution. After the serial dilution, a volume of 2 μL of the solution was transferred from the 384-well plate to a 96-well cell culture plate containing 100 μL of cell media on a Biomek FX Workstation. The DMSO concentration in the final assay condition was 0.5% after cells are added to the plate and the total volume in each well is brought to 200 μL. • Step 2: to each well of the serial dilution plate prepared above, 100 μL of cell media containing 6000 suspended Huh-7 HCV replicon cells was added with a Multidrop workstation. The plates were incubated for 3 days at 37° C. with 5% CO2. • Step 3: detection: • a) for the EC50 assay, the media in a 96-well cell culture plate was aspirated with a Biotek EL405 plate-washer. A volume of 200 μL of a solution containing a 1:1 mixture of cell-lysis buffer (Promega, Luciferase Cell Culture Lysis 5× Reagent, cat. #E1531) and luciferase substrate solution (Promega, Luciferase Assay, cat.# E4550) was added to each well of the plate with Multidrop. The plate was incubated for 30 minutes at room temperature before the luminescence signal was measured with a TopCount plate-reader. • b) for the CC50 assay, a volume of 100 μL of pre-mixed CellTiter-Glo (Promega, cat.# G7572) solution is added directly to the cell culture in each well of the plate and the luminescence signal is measured with a TopCount plate-reader after 10 minutes of incubation at room temperature.
For orientation: Replicon systems follow genome replication, usually without infectious particles.

The nature of data set [2]: CC50 assay (CellTiter-Glo) in Huh-7 HCV replicon cells. Type of data set: cell-based. To be noted: human. As for the experimental part:
as §1

This is an account of results in patent US8536187B2 (Gilead Sciences, Inc., priority 2008, dated 2013).

SMILES strings stand for the structures.

Broadly, the EC50 is the concentration needed to bring the measured effect to its halfway point. Higher therefore signals a less potent agent. For orientation: CC50 means the concentration giving 50% cytotoxicity. Take `C[C@H](Cn1cncn1)Nc1nc(NCC(F)(F)F)c2nc(-c3cccc(S(C)(=O)=O)c3)ccc2n1` [Example 168, N^2-((R)-1-(1H-1,2,4-triazol-1-yl)propan-2-yl)-6-(3-(methylsulfonyl)phenyl)-N^4-(2,2,2-trifluoroethyl)pyrido [3,2-d]pyrimidine-2,4-diamine]: in data set [1], the EC50 was in the range of 100 to 250 nM. In addition, the half-maximal cytotoxic concentration (CC50) at 3 days in data set [2] (Table 2, 3 days incubation) is > 10000 nM.
For `CCS(=O)(=O)c1cccc(-c2ccc3nc(NCc4ccc(-n5cncn5)cc4)nc(NCC(F)(F)F)c3n2)c1` [Example 181, N^2-(4-(1H-1,2,4-triazol-1-yl)benzyl)-6-(3-(ethylsulfonyl)phenyl)-N^4-(2,2,2-trifluoroethyl)pyrido [3,2-d]pyrimidine-2,4-diamine], in that order: < 100 nM and > 10000 nM.
For `CS(=O)(=O)c1cccc(-c2ccc3nc(NCCS(N)(=O)=O)nc(NCC(F)(F)F)c3n2)c1` [Example 137, 2-(6-(3-(methylsulfonyl)phenyl)-4-(2,2,2-trifluoroethylamino)pyrido [3,2-d]pyrimidin-2-ylamino)ethanesulfonamide], in that order: 100 to 250 nM and > 10000 nM.
Consider `c1ncn(-c2ccc(CNc3nc(OC4CC4)c4nc(-c5cnc(OC6CC6)nc5)ccc4n3)cc2)n1` [Example 254, N-(4-(1H-1,2,4-triazol-1-yl)benzyl)-4-cyclopropoxy-6-(2-cyclopropoxypyrimidin-5-yl)pyrido[3,2-d]pyrimidin-2-amine], for which the EC50 in data set [1] was < 100 nM. The CC50 at 3 days in data set [2] (Table 2, 3 days incubation) is > 10000 nM.
The corresponding values for `C[C@@H](Nc1nc(NC2(C(F)(F)F)CCCCC2)c2nc(-c3ccc(F)cc3)ccc2n1)c1ccc(S(N)(=O)=O)cc1` [Example 67, (R)-4-(1-(6-(4-fluorophenyl)-4-(1-(trifluoromethyl)cyclohexylamino)pyrido[3,2-d]pyrimidin-2-ylamino)ethyl)benzenesulfonamide] are 250 to 2000 nM and > 10000 nM.
For `FC(F)Oc1ccc(-c2ccc3nc(NCc4ccc(-n5cncn5)cc4)nc(NCC(F)(F)F)c3n2)cn1` [Example 245, N^2-(4-(1H-1,2,4-triazol-1-yl)benzyl)-6-(6-(difluoro-methoxy)pyridin-3-yl)-N^4-(2,2,2-trifluoroethyl)pyrido [3,2-d]pyrimidine-2,4-diamine], in that order: < 100 nM and > 10000 nM.
The corresponding values for `CC(C)(O)CNc1nc(NCC(F)(F)F)c2nc(-c3cccc(S(C)(=O)=O)c3)ccc2n1` [Example 159, 2-methyl-1-(6-(3-(methylsulfonyl)phenyl)-4-(2,2,2-trifluoroethylamino)pyrido[3,2-d]pyrimidin-2-ylamino)propan-2-ol] are 100 to 250 nM and > 10000 nM.
With `CCC(=O)NS(=O)(=O)c1ccc(CNc2nc(NCC(F)(F)F)c3nc(-c4ccc(OC)c(S(C)(=O)=O)c4)ccc3n2)cc1` [Example 142, N-(4-((6-(4-methoxy-3-(methylsulfonyl)phenyl)-4-(2,2,2-trifluoroethylamino)pyrido[3,2-d]pyrimidin-2-ylamino)methyl)phenylsulfonyl) propionamide], the EC50 in data set [1] lay within 250 to 2000 nM. In addition, in data set [2] (Table 2, 3 days incubation), the CC50 at 3 days was > 10000 nM.
The corresponding values for `COc1ccc(-c2ccc3nc(N[C@H](C)c4ccc(-n5cncn5)cc4)nc(NC4(C(F)(F)F)CC4)c3n2)cc1S(C)(=O)=O` [Example 94, N^2-((R)-1-(4-(1H-1,2,4-triazol-1-yl)phenyl)ethyl)-6-(4-methoxy-3-(methylsulfonyl)phenyl)-N^4-(1-(trifluoromethyl)cyclopropyl) pyrido[3,2-d]pyrimidine-2,4-diamine] are < 100 nM and 1000 to 10000 nM.
Compound `C[C@@H](Nc1nc(OC2CC2)c2nc(-c3ccc(F)cc3)ccc2n1)c1ccc(S(N)(=O)=O)cc1` [Example 13, (R)-4-{1-[6-(4-Fluoro-phenyl)-4-cyclopropoxy-pyrido[3,2-d]pyrimidin-2-ylamino]-ethyl}-benzenesulfonamide] displayed a concentration for a half-maximal effect (EC50) in data set [1] of 100 to 250 nM. Besides, in data set [2] (Table 1, 3 days incubation), the CC50 at 3 days was 10000 to 25000 nM.
Consider `C[C@@H](Nc1nc(NCC(F)(F)F)c2nc(-c3cncc(S(C)(=O)=O)c3)ccc2n1)c1ccc(S(N)(=O)=O)cc1` [Example 156, 4-((R)-1-(6-(5-(methylsulfonyl)pyridin-3-yl)-4-(2,2,2-trifluoroethylamino)pyrido [3,2-d]pyrimidin-2-ylamino)ethyl)benzenesulfonamide], for which the EC50 in data set [1] was in the range of 250 to 2000 nM. Besides, the half-maximal cytotoxic concentration (CC50) at 3 days in data set [2] (Table 2, 3 days incubation) is > 10000 nM.
With `COc1ccc(-c2ccc3nc(NCc4ccc(S(N)(=O)=O)cc4)nc(NCC(F)(F)F)c3n2)cc1S(N)(=O)=O` [Example 225, 4-((6-(4-methoxy-3-(aminosulfonyl)phenyl)-4-(2,2,2-trifluoroethylamino)pyrido[3,2-d]pyrimidin-2-ylamino)methyl)benzene-sulfonamide], the EC50 in data set [1] was < 100 nM. Further, the CC50 at 3 days in data set [2] (Table 2, 3 days incubation) was > 10000 nM.
As for `Nc1ccc(-c2ccc3nc(NCc4cccc(-n5cncn5)c4)nc(NC4(C(F)(F)F)CC4)c3n2)cn1` [Example 73, N^2-(3-(1H-1,2,4-triazol-1-yl)benzyl)-6-(6-aminopyridin-3-yl)-N^4-(1-(trifluoromethyl)cyclopropyl)pyrido[3,2-d] pyrimidine-2,4-diamine], the EC50 in data set [1] is < 100 nM. Also, the CC50 at 3 days in data set [2] (Table 2, 3 days incubation) lay within 1000 to 10000 nM.
The corresponding values for `CS(=O)(=O)c1cccc(-c2ccc3nc(NCc4ccc(-n5cncn5)nc4)nc(NCC(F)(F)F)c3n2)c1` [Example 184, N^2-((6-(1H-1,2,4-triazol-1-yl)pyridin-3-yl)methyl)-6-(3-(methylsulfonyl)phenyl)-N^4-(2,2,2-trifluoroethyl)pyrido [3,2-d]pyrimidine-2,4-diamine] are < 100 nM and 1000 to 10000 nM.
`NS(=O)(=O)c1cc(CNc2nc(NC3(C(F)(F)F)CC3)c3nc(-c4ccc(F)cc4)ccc3n2)ccc1Cl` [Example 88, 2-chloro-5-((6-(4-fluorophenyl)-4-(1-(trifluoromethyl)cyclopropyl-amino)pyrido[3,2-d]pyrimidin-2-ylamino)methyl)benzene-sulfonamide] had an EC50 in data set [1] of 100 to 250 nM. For the same compound, the CC50 at 3 days in data set [2] (Table 2, 3 days incubation) was > 10000 nM.
The corresponding values for `COc1ccc(-c2ccc3nc(NCc4ccc(S(N)(=O)=O)c(Cl)c4)nc(NCC(F)(F)F)c3n2)cc1S(C)(=O)=O` [Example 147, 2-chloro-4-((6-(4-methoxy-3-(methylsulfonyl)phenyl)-4-(2,2,2-trifluoroethylamino)pyrido[3,2-d]pyrimidin-2-ylamino)methyl)benzene-sulfonamide] are < 100 nM and > 10000 nM.
The corresponding values for `C[C@@H](Nc1nc(NC2(C(F)(F)F)CC2)c2nc(-c3ccc(N)nc3)ccc2n1)c1ccc(-n2cncn2)cc1` [Example 84, N^2-((R)-1-(4-(1H-1,2,4-triazol-1-yl)phenyl)ethyl)-6-(6-aminopyridin-3-yl)-N^4-(1-(trifluoromethyl)cyclopropyl) pyrido[3,2-d]pyrimidine-2,4-diamine] are < 100 nM and 1000 to 10000 nM.
In the case of `Cc1nccn1-c1cccc(CNc2nc(NC3(C(F)(F)F)CC3)c3nc(-c4ccc(F)cc4)ccc3n2)c1` [Example 53, N^2-(3-(2-methyl-1H-imidazol-1-yl)benzyl)-6-(4-fluorophenyl)-N^4-(1-(trifluoromethyl)cyclopropyl)pyrido[3,2-d] pyrimidine-2,4-diamine], the EC50 in data set [1] was 250 to 2000 nM. Besides, the CC50 at 3 days in data set [2] (Table 2, 3 days incubation) was 1000 to 10000 nM.
For `CS(=O)(=O)c1cccc(-c2ccc3nc(NCc4ccc(-n5cncn5)cc4)nc(NCC(F)(F)F)c3n2)c1` [Example 163, N^2-(4-(1H-1,2,4-triazol-1-yl)benzyl)-6-(3-(methylsulfonyl)phenyl)-N^4-(2,2,2-trifluoroethyl) pyrido[3,2-d]pyrimidine-2,4-diamine], in that order: < 100 nM and > 10000 nM.
For `NS(=O)(=O)c1cc(CNc2nc(NC3(C(F)(F)F)CC3)c3nc(C#CC4CC4)ccc3n2)cc(C(F)(F)F)c1` [Example 106, 3-((6-(2-cyclopropylethynyl)-4-(1-(trifluoromethyl)cyclo-propylamino)pyrido[3,2-d]pyrimidin-2-ylamino)methyl)-5-(trifluoromethyl)benzene-sulfonamide], in that order: < 100 nM and > 10000 nM.
For the compound `COc1ccc(-c2ccc3nc(NCc4ccc(S(N)(=O)=O)cc4)nc(NCC(F)(F)F)c3n2)cc1C(N)=O` [Example 226, 4-((6-(3-(aminocarbonyl)l-4-methoxyphenyl)-4-(2,2,2-trifluoroethylamino)pyrido [3,2-d]pyrimidin-2-ylamino)methyl)benzene-sulfonamide], in data set [1], the EC50 is < 100 nM.
